{"source": "patent US11414454B2", "about": "“Compositions, methods, and systems for affinity-based protein identification and purification” (Auctus Biologies, Inc., priority 2017, dated 2022)", "type_in_all_cases": "binding, Thermoanaerobacter tengcongensis", "key": {"RPtag (large) [1]": {"target": "RPtag (large)", "assay": "Buffer additive screen, Kd by fluorescence anisotropy", "method": "To determine reagent compatibility with the disclosed system, an additive screen was performed, wherein the Kd between RPtag (large) and 3 RPtag (small) peptides—native, Nd8Cd4, and Nd2p5ae18a—were tested in the presence of several common buffer additives (Table 3)."}, "RPtag (large) [2]": {"target": "RPtag (large)", "assay": "Fluorescence anisotropy Kd of rhodamine labeled RPtag (small) peptides for RPtag (large)", "summary_of_the_method": "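N-terminally rhodamine-labeled RPtag small (50 nM or 1 nM) titrated with RPtag large in 50 mM Tris pH 8.0 with 0.005% Tween 20, 5 min to 1 h at room temperature; BSA served as non-specific binding control. Kd from fitting fluorescence anisotropy to a quadratic binding equation accounting for labeled peptide concentration.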"}, "RPtag (large) [3]": {"test_system": "RPtag (large)", "assay": "Association/dissociation kinetics of RPtag (small) peptides with RPtag (large) by fluorescence anisotropy", "conditions": "for koff: LS dissociation, unlabeled competitor peptide", "summary_of_the_method": "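Rhodamine-labeled RPtag small incubated with unlabeled RPtag large; binding followed by fluorescence anisotropy and converted to complex concentration. For dissociation, 1000 nM RPtag large complex chased with 0.1 mM unlabeled native or Nd2,P5A,E18A peptide; koff from initial rates or single-exponential fits, kon derived from koff and Kd.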"}, "[4]": {"conditions": "100 mM Tris pH 8.0, 0.005% Tween 20, No Additive"}, "[5]": {"conditions": "N-terminal rhodamine tagged peptide, unlabeled RPtag (large), 50 mM Tris pH 8.0, 0.005% Tween 20, mean ± SE"}}, "note": "No end group written: not given here.", "data": [{"sequence": "KIANFIPAELKLITKANVQ [Nd2, p5a, e18a, KIANFIPAELKLITKANVQ]", "values": [{"measurement": "Kd", "setting": "RPtag (large) [1]; [4]", "value": 0.037, "unit": "nM"}, {"measurement": "Kd", "setting": "RPtag (large) [1]; BME (10%)", "value": 6.7, "unit": "nM"}, {"measurement": "Kd", "setting": "RPtag (large) [1]; CaCl2 (3M)", "value": 150, "unit": "nM"}, {"measurement": "Kd", "setting": "RPtag (large) [1]; DMSO (20%)", "value": 0.023, "unit": "nM"}, {"measurement": "Kd", "setting": "RPtag (large) [1]; DTT (100 mM)", "value": 0.073, "unit": "nM"}, {"measurement": "Kd", "setting": "RPtag (large) [1]; EtOH (20%)", "value": 0.1, "unit": "nM"}, {"measurement": "Kd", "setting": "RPtag (large) [1]; Gdn-HCl (6M)", "value": "> 10000", "unit": "nM"}, {"measurement": "Kd", "setting": "RPtag (large) [1]; KCl (3M)", "value": 0.011, "unit": "nM"}, {"measurement": "Kd", "setting": "RPtag (large) [1]; MeOH (20%)", "value": 0.056, "unit": "nM"}, {"measurement": "Kd", "setting": "RPtag (large) [1]; MgCl2 (3M)", "value": 350, "unit": "nM"}, {"measurement": "Kd", "setting": "RPtag (large) [1]; MnSO4 (10 mM)", "value": 22, "unit": "nM"}, {"measurement": "Kd", "setting": "RPtag (large) [1]; NH4SO4 (3M)", "value": 44, "unit": "nM"}, {"measurement": "Kd", "setting": "RPtag (large) [1]; NaCl (3M)", "value": "< 0.001", "unit": "nM"}, {"measurement": "Kd", "setting": "RPtag (large) [1]; NiCl2 (100 mM)", "value": 2.2, "unit": "nM"}, {"measurement": "Kd", "setting": "RPtag (large) [1]; PG (50%)", "value": 49, "unit": "nM"}, {"measurement": "Kd", "setting": "RPtag (large) [1]; SDS (2%)", "value": "> 10000", "unit": "nM"}, {"measurement": "Kd", "setting": "RPtag (large) [1]; TritonX-100 (2%)", "value": 0.046, "unit": "nM"}, {"measurement": "Kd", "setting": "RPtag (large) [1]; Tween20 (2%)", "value": 4.7, "unit": "nM"}, {"measurement": "Kd", "setting": "RPtag (large) [1]; acetone (20%)", "value": 0.019, "unit": "nM"}, {"measurement": "Kd", "setting": "RPtag (large) [1]; glycerol (20%)", "value": "< 0.001", "unit": "nM"}, {"measurement": "Kd", "setting": "RPtag (large) [1]; imidazole (3M)", "value": "> 10000", "unit": "nM"}, {"measurement": "Kd", "setting": "RPtag (large) [1]; ribose (3M)", "value": "< 0.001", "unit": "nM"}, {"measurement": "Kd", "setting": "RPtag (large) [1]; sorbitol (3M)", "value": "< 0.001", "unit": "nM"}, {"measurement": "Kd", "setting": "RPtag (large) [1]; urea (8M)", "value": "> 10000", "unit": "nM"}, {"measurement": "Kd", "setting": "RPtag (large) [2]", "value": "~0.047", "unit": "nM"}, {"measurement": "Kd", "setting": "RPtag (large) [2]; [5]", "value": "0.047 ± 0.018", "unit": "nM"}, {"measurement": "koff", "setting": "RPtag (large) [3]", "value": "0.000217 ± 1.7e-05", "unit": "s⁻¹"}, {"measurement": "kf", "setting": "RPtag (large) [3]; S to S* forward rate constant", "value": "0.051 ± 0.001", "unit": "min⁻¹"}, {"measurement": "kr", "setting": "RPtag (large) [3]; S* to S reverse rate constant, calculated from Keq and kf", "value": "0.19 ± 0.02", "unit": "min⁻¹"}, {"measurement": "kon (M^−1 min^−1 ) (×10^7)", "setting": "RPtag (large) [3]; S*-LS transition, calculated from measured koff and Kd", "value": "28 ± 2 ×10^7 M^−1 min^−1"}]}, {"sequence": "PAELKLITK [Nd8, Cd4, PAELKLITK]", "values": [{"measurement": "Kd", "setting": "RPtag (large) [1]; [4]", "value": 14, "unit": "nM"}, {"measurement": "increased affinity with kosmotropic salts NaCl and KCl", "setting": "RPtag (large) [1]; 3M salt versus no additive", "value": "> 100", "unit": "fold"}, {"measurement": "Kd", "setting": "RPtag (large) [1]; BME (10%)", "value": 740, "unit": "nM"}, {"measurement": "Kd", "setting": "RPtag (large) [1]; CaCl2 (3M)", "value": "> 10000", "unit": "nM"}, {"measurement": "Kd", "setting": "RPtag (large) [1]; DMSO (20%)", "value": 140, "unit": "nM"}, {"measurement": "Kd", "setting": "RPtag (large) [1]; DTT (100 mM)", "value": 33, "unit": "nM"}, {"measurement": "Kd", "setting": "RPtag (large) [1]; EtOH (20%)", "value": 733, "unit": "nM"}, {"measurement": "Kd", "setting": "RPtag (large) [1]; Gdn-HCl (6M)", "value": "> 10000", "unit": "nM"}, {"measurement": "Kd", "setting": "RPtag (large) [1]; KCl (3M)", "value": 0.066, "unit": "nM"}, {"measurement": "Kd", "setting": "RPtag (large) [1]; MeOH (20%)", "value": 34, "unit": "nM"}, {"measurement": "Kd", "setting": "RPtag (large) [1]; MgCl2 (3M)", "value": 240, "unit": "nM"}, {"measurement": "Kd", "setting": "RPtag (large) [1]; MnSO4 (10 mM)", "value": 160, "unit": "nM"}, {"measurement": "Kd", "setting": "RPtag (large) [1]; NH4SO4 (3M)", "value": 2.8, "unit": "nM"}, {"measurement": "Kd", "setting": "RPtag (large) [1]; NaCl (3M)", "value": 0.15, "unit": "nM"}, {"measurement": "Kd", "setting": "RPtag (large) [1]; NiCl2 (100 mM)", "value": 42, "unit": "nM"}, {"measurement": "Kd", "setting": "RPtag (large) [1]; PG (50%)", "value": 4600, "unit": "nM"}, {"measurement": "Kd", "setting": "RPtag (large) [1]; SDS (2%)", "value": "> 10000", "unit": "nM"}, {"measurement": "Kd", "setting": "RPtag (large) [1]; TritonX-100 (2%)", "value": 180, "unit": "nM"}, {"measurement": "Kd", "setting": "RPtag (large) [1]; Tween20 (2%)", "value": 45, "unit": "nM"}, {"measurement": "Kd", "setting": "RPtag (large) [1]; acetone (20%)", "value": 22, "unit": "nM"}, {"measurement": "Kd", "setting": "RPtag (large) [1]; glycerol (20%)", "value": 27, "unit": "nM"}, {"measurement": "Kd", "setting": "RPtag (large) [1]; imidazole (3M)", "value": "> 10000", "unit": "nM"}, {"measurement": "Kd", "setting": "RPtag (large) [1]; ribose (3M)", "value": 42, "unit": "nM"}, {"measurement": "Kd", "setting": "RPtag (large) [1]; sorbitol (3M)", "value": 16, "unit": "nM"}, {"measurement": "Kd", "setting": "RPtag (large) [1]; urea (8M)", "value": "> 10000", "unit": "nM"}, {"measurement": "Kd", "setting": "RPtag (large) [2]; [5]", "value": "14 ± 1", "unit": "nM"}, {"measurement": "Kd", "setting": "RPtag (large) [2]; N-terminal rhodamine tagged peptide, unlabeled RPtag (large), 50 mM Tris pH 8.0, 0.005% Tween 20, mean ± SE, listed as Nd8Cd4", "value": "~14", "unit": "nM"}, {"measurement": "koff", "setting": "RPtag (large) [3]", "value": ">0.033", "unit": "s⁻¹"}, {"measurement": "binding/unbinding kinetics", "setting": "RPtag (large) [3]; instrument dead time ~1 min", "value": "completed within the dead time"}]}]}
